The text below walks through data of ChEMBL document CHEMBL1201862, “PubChem BioAssay data set” (2004).

Structures are written as SMILES.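 96-well plates; 48 h exposure; 5 concentrations. Endpoints by linear interpolation between flanking doses. Not reached: highest tested concentration assigned. GI50 marks 50% less growth.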 Calls of active or inactive are those of the source. Cut-off read from the data, not from the text of the source: active = GI50 up to about 1.1 µM and inactive = higher. A value given as a limit tells only on which side of the number the result lay.

Some test systems named below: HCC 2998; PC-3; UACC-257; T47D; BT-549; HCT-15; ACHN; SF-268; HL-60; CCRF-CEM; Malme-3M; SF-295; NCI-H23; EKVX; IGROV-1; OVCAR-5; SR; NCI-H522.
What all share (assay): NCI anticancer screen, dose series, 48 h

In the case of `Clc1ccc(C2=CC(c3ccccc3)N3C(=N[C@H]4CCCC[C@@H]43)N2)cc1` (some centres undefined), the GI50 is 2.08 µM (inactive) in the experiment on HCC 2998; 6.56 µM (inactive) in the experiment on PC-3; 12.9 µM (inactive) with UACC-257; 6.4 µM (inactive) in the experiment on T47D; 9.12 µM (inactive) in the experiment on BT-549; 4.08 µM with HCT-15. The GI50 with ACHN was 5.24 µM (inactive); in the experiment with SF-268, 6.14 µM (inactive); in the experiment with HL-60, 2.82 µM (inactive); in the experiment on CCRF-CEM, 4.94 µM (inactive); in the experiment on Malme-3M, 2.67 µM (inactive); with SF-295, 7.67 µM (inactive). The GI50 with NCI-H23 is 7.82 µM (inactive); with EKVX, 4.47 µM (inactive); with IGROV-1 it was 3.39 µM (inactive); with OVCAR-5 it was 11.5 µM (inactive); in the experiment on SR, 2.14 µM (inactive).

On to `COC(=O)C1=C(C(=O)NNc2ccccc2)N(c2cccnc2Cl)C(c2ccccc2)=CC1c1ccccc1` (centres undefined), for which the GI50 in the experiment on HCC 2998 was 60.3 µM (inactive); in the experiment with NCI-H522, > 100 µM (inactive); in the experiment with PC-3 it was 31.3 µM (inactive); in the experiment on UACC-257, 41.4 µM (inactive); with T47D, 26.1 µM (inactive); in the experiment with BT-549, 56.8 µM (inactive). The GI50 is 39.3 µM in the experiment on HCT-15; 76.7 µM (inactive) in the experiment on ACHN; 88.1 µM (inactive) in the experiment with SF-268; 37.2 µM (inactive) in the experiment on HL-60; 27.7 µM (inactive) with CCRF-CEM; 27.8 µM (inactive) with Malme-3M. Moreover, the GI50 in the experiment on SF-295 was 19.6 µM (inactive); with NCI-H23 it was 73.8 µM (inactive); in the experiment on EKVX, > 100 µM (inactive); with IGROV-1, > 100 µM (inactive); with OVCAR-5 it was > 100 µM (inactive); with SR, 24 µM (inactive).

Take `CN(C)c1ccc(C2CC(c3ccc4ccccc4c3O)=NN2c2ccc([N+](=O)[O-])cc2[N+](=O)[O-])cc1` (centres undefined): the GI50 was 71 µM (inactive) in the experiment on HCC 2998; 21 µM (inactive) in the experiment with NCI-H522; 23.6 µM (inactive) in the experiment on PC-3; 58.5 µM (inactive) in the experiment with UACC-257; 68.1 µM (inactive) with T47D; 91 µM (inactive) in the experiment with BT-549. For the same compound, the GI50 is 61.5 µM with HCT-15; > 100 µM (inactive) in the experiment with ACHN; 98.4 µM (inactive) with SF-268; 22.3 µM (inactive) in the experiment on CCRF-CEM; 19.2 µM (inactive) in the experiment on Malme-3M; 40.1 µM (inactive) with SF-295. In addition, the GI50 was 17 µM (inactive) in the experiment with NCI-H23, 26.2 µM (inactive) with IGROV-1, > 100 µM (inactive) with OVCAR-5 and 12.6 µM (inactive) in the experiment with SR.

As for `CC(=O)Oc1ccc(/C=C/C(=O)NCCOC(=O)/C=C/c2ccc(OC(C)=O)c(OC(C)=O)c2)cc1OC(C)=O`, the GI50 in the experiment on HCC 2998 is 34.3 µM (inactive); with NCI-H522, 8.97 µM (inactive); in the experiment with PC-3, 34 µM (inactive); in the experiment on UACC-257, 31.3 µM (inactive); in the experiment on T47D it was 20.4 µM (inactive); with BT-549 it was 38.7 µM (inactive). The GI50 in the experiment with HCT-15 is 34.8 µM; in the experiment on ACHN it was 26.2 µM (inactive); in the experiment on SF-268 it was 20 µM (inactive); with CCRF-CEM, 0.571 µM (active); in the experiment on Malme-3M, 28.5 µM (inactive); in the experiment with SF-295 it was 23.7 µM (inactive). The GI50 in the experiment on NCI-H23 is 26.4 µM (inactive); with EKVX it was 34.7 µM (inactive); in the experiment on IGROV-1, 33 µM (inactive); in the experiment on OVCAR-5, 23.8 µM (inactive); in the experiment with SR, 14.1 µM (inactive).

As for `COc1ccc(/C=N/N=C(\N)NO)c(O)c1`, the GI50 in the experiment with HCC 2998 is > 10 µM (inactive); with NCI-H522 it was > 10 µM (inactive); with PC-3, 3.48 µM (inactive); in the experiment with UACC-257, 6.52 µM (inactive); in the experiment on T47D, > 10 µM (inactive); in the experiment on BT-549, > 10 µM (inactive). The GI50 with HCT-15 is 6.24 µM; in the experiment on ACHN, 5.96 µM (inactive); in the experiment with SF-268, > 10 µM (inactive); in the experiment with HL-60, 4.39 µM (inactive); in the experiment on CCRF-CEM, > 10 µM (inactive); in the experiment with Malme-3M, 9.75 µM (inactive). In addition, the GI50 is > 10 µM (inactive) with SF-295; > 10 µM (inactive) with NCI-H23; > 10 µM (inactive) in the experiment with EKVX; 8.77 µM (inactive) with IGROV-1; > 10 µM (inactive) in the experiment with OVCAR-5; 2.81 µM (inactive) in the experiment with SR.

Regarding `CC(C)(CN)SCc1ccccc1`, the GI50 in the experiment on NCI-H522 was > 100 µM (inactive); in the experiment with PC-3, > 100 µM (inactive); with UACC-257, 28.7 µM (inactive); in the experiment with T47D, > 100 µM (inactive); in the experiment with BT-549, > 100 µM (inactive); in the experiment with HCT-15 it was over 100 µM. Further, the GI50 in the experiment on ACHN, in the experiment on SF-268, in the experiment with HL-60, in the experiment on CCRF-CEM, in the experiment with Malme-3M and in the experiment on SF-295 was > 100 µM (inactive) in each case. For the same compound, the GI50 with EKVX, in the experiment on IGROV-1, in the experiment on OVCAR-5 and in the experiment on SR was > 100 µM (inactive) in each case.

Turning to `CC[C@@H]1C[C@@H](O)[C@@H]2[C@H](O)[C@H](O)CN2C1`, the GI50 with HCC 2998, in the experiment on NCI-H522, in the experiment on PC-3, in the experiment on UACC-257, in the experiment with T47D and in the experiment with BT-549 was > 100 µM (inactive) each time. The GI50 was over 100 µM with HCT-15; > 100 µM (inactive) with ACHN; > 100 µM (inactive) with SF-268; > 100 µM (inactive) with HL-60; > 100 µM (inactive) in the experiment on CCRF-CEM; > 100 µM (inactive) in the experiment with Malme-3M. Also, the GI50 with SF-295, in the experiment with NCI-H23, in the experiment with EKVX, in the experiment with IGROV-1 and in the experiment on OVCAR-5 was > 100 µM (inactive) each time.

`CC(=O)N1C(C(=O)NNc2ccccc2)CSC1c1ccccc1` (centres undefined): the GI50 was 23 µM (inactive) in the experiment with HCC 2998; 0.471 µM (active) in the experiment on NCI-H522; 5.3 µM (inactive) in the experiment with PC-3; > 100 µM (inactive) with UACC-257; 69.7 µM (inactive) with T47D; > 100 µM (inactive) in the experiment with BT-549. Besides, the GI50 in the experiment with HCT-15 is 1.56 µM; with ACHN, 4.47 µM (inactive); in the experiment on SF-268 it was > 100 µM (inactive); in the experiment on CCRF-CEM, 77.3 µM (inactive); in the experiment on Malme-3M it was > 100 µM (inactive); in the experiment on SF-295, > 100 µM (inactive). Also, the GI50 with NCI-H23 was > 100 µM (inactive); with EKVX, > 100 µM (inactive); with IGROV-1, 36.6 µM (inactive); in the experiment with OVCAR-5, > 100 µM (inactive); with SR, > 100 µM (inactive).

For the compound `CCOC(=O)c1c(N2CCOCC2)ncn(-c2cccc(Cl)c2)c1=O`, the GI50 in the experiment with HCC 2998, with NCI-H522, with PC-3, in the experiment with UACC-257, with T47D and with BT-549 was > 100 µM (inactive) each time. Besides, the GI50 was over 100 µM with HCT-15; > 100 µM (inactive) in the experiment on ACHN; > 100 µM (inactive) with SF-268; > 100 µM (inactive) with HL-60; > 100 µM (inactive) in the experiment on CCRF-CEM; > 100 µM (inactive) in the experiment with Malme-3M. Besides, the GI50 in the experiment on SF-295, in the experiment on NCI-H23, in the experiment on EKVX, with IGROV-1 and with OVCAR-5 was > 100 µM (inactive) throughout.

Take `CC(=O)OCC1OC(N2C(=O)CC(N)=Nc3ccccc32)C(OC(C)=O)C(OC(C)=O)C1OC(C)=O` (centres undefined): the GI50 in the experiment on HCC 2998 is 75.7 µM (inactive); in the experiment on PC-3, 42.6 µM (inactive); with UACC-257 it was 32.4 µM (inactive); in the experiment on T47D it was 20.5 µM (inactive); in the experiment with BT-549 it was 66.2 µM (inactive); in the experiment on HCT-15, 44.8 µM. The GI50 in the experiment with ACHN was 66.5 µM (inactive); in the experiment on SF-268 it was 45.4 µM (inactive); in the experiment on HL-60, 67.3 µM (inactive); in the experiment with CCRF-CEM, > 100 µM (inactive); in the experiment with Malme-3M, 28.9 µM (inactive); in the experiment on SF-295, 74 µM (inactive). In addition, the GI50 in the experiment with NCI-H23 is 43.2 µM (inactive); in the experiment with EKVX, 83.2 µM (inactive); with IGROV-1, 45.1 µM (inactive); with OVCAR-5, > 100 µM (inactive); in the experiment with SR it was 41 µM (inactive).

`Cc1cn(S(=O)(=O)c2ccccc2)c2c(OCc3ccccc3)cc(NS(C)(=O)=O)cc12`: the GI50 in the experiment with HCC 2998 is 24.4 µM (inactive); in the experiment with NCI-H522, 18.8 µM (inactive); with PC-3 it was 3.92 µM (inactive); with UACC-257, 10.1 µM (inactive); in the experiment with T47D, 4.72 µM (inactive); in the experiment with BT-549, 27.6 µM (inactive). Further, the GI50 in the experiment with HCT-15 is 12.9 µM; in the experiment with ACHN it was 20.4 µM (inactive); in the experiment with SF-268, 14 µM (inactive); in the experiment with HL-60 it was 4.52 µM (inactive); in the experiment with Malme-3M, 8.38 µM (inactive); with SF-295, 14.7 µM (inactive). In addition, the GI50 is 16 µM (inactive) with NCI-H23; 5.35 µM (inactive) in the experiment on EKVX; 33 µM (inactive) with IGROV-1; 61.8 µM (inactive) in the experiment with OVCAR-5; 4.98 µM (inactive) with SR.

For `N=C(N)C1CN(CC=O)C(=O)NC1=O` (centres undefined), the GI50 is > 100 µM (inactive) in the experiment with HCC 2998; > 100 µM (inactive) with PC-3; > 100 µM (inactive) in the experiment with UACC-257; > 100 µM (inactive) with T47D; > 100 µM (inactive) with BT-549; over 100 µM in the experiment on HCT-15. Further, the GI50 with ACHN, with SF-268, in the experiment on HL-60, with CCRF-CEM, with Malme-3M and in the experiment with SF-295 was > 100 µM (inactive) each time. Further, the GI50 in the experiment with NCI-H23, in the experiment on EKVX, with IGROV-1, with OVCAR-5 and in the experiment on SR was > 100 µM (inactive) in each case.
